This is an account of results in patent publication US20130096021A1, “RECURRENT GENE FUSIONS IN BREAST CANCER” (priority 2011, published 2013).

The subject of data set [1] is Notch target genes CCND1, MYC, and HEY1. Nature of the data set: Expression of Notch target genes after DAPT treatment. The format is cell-based, human. As to conditions: 24-hour time course, cell lines with γ-secretase dependent Notch fusions.
The next data set has as its system Notch signaling pathway. Nature of the data set: Notch reporter luciferase assay after DAPT treatment. The format is cell-based, human. To be noted: lysates 24 hours after DAPT. The method, then:
Breast cancer cells were seeded into 24-well dishes in triplicate and allowed to attach overnight. Cells were then infected with a Notch-reporter construct Lenti-RBPJ-firefly luciferase together with a Lenti-CMV-Renilla luciferase control (SABiosciences/QIAGEN). The two lentiviral stocks were mixed at a ratio of 50 Notch reporters to 1 CMV control and a single mixture was used to infect all recipient cell lines at a MOI of 100. Following incubation for 48 hours, cell lysates were prepared and measured for Notch activity using Promega Dual Luciferase reagents and Passive Lysis Buffer. Firefly luciferase levels were normalized using corresponding Renilla luciferase levels for each cell line. To confirm that Notch pathways are activated in the index cell lines through Notch gene rearrangements, the activated NOTCH1 and NOTCH2 alleles were cloned from HCC1599, HCC2218, and HCC1187 into a pcDNA3.1 vector. These expression constructs, pcDNA3.1-1599-NOTCH1, pcDNA3.1-2218-NOTCH1, and pcDNA3.1-1187-NOTCH2 and positive control NOTCH1-NICD, were individually transfected into 293T cells along with the pGL4-RBPJ-4X reporter plasmid and pTKRenilla luciferase control plasmid. Cells were harvested for luciferase activity assays 24 hours after transfection and assayed as above.
Notch fusion alleles provide a target for therapeutic intervention. The three characterized Notch fusions represent two functional classes. The first class, exemplified by the HCC2218 and HCC1599 fusions, produces a protein similar to that produced by the ADAM17/TACE catalyzed S2 cleavage, which occurs during ligand activation of the Notch pathway. The second class, exemplified by the HCC1187 fusion, produces a protein similar to the NICD produced after cleavage at S3 by γ-secretase. […] Each of the three cell lines was treated with the γ-secretase inhibitor DAPT 31, and luciferase activity was measured in cell lysates 24 hours later. […] A panel of six breast cell lines were treated with DAPT at 0, 0.3, 1, and 3 μM, and cell proliferation was measured using a WST-1 assay over a six day time course.

The subject of data set [2] is other breast cell lines not expressing Notch fusion alleles. Nature of the data set: WST-1 cell proliferation assay with DAPT. It is filed as cell-based, human. To be noted: DAPT 0.3, 1, and 3 μM, six day time course. The method, then:
(§1) For cell proliferation assays, cells were seeded into 96-well plates in triplicate and allowed to attach overnight before drug treatment. The γ-secretase inhibitor DAPT (EMD Biosciences) was added to the cultures the next day at concentrations of 0, 0.3, 1, and 3 μM. Relative cell numbers were measured by WST-1 assays at indicated time points following the manufacturer's instructions (Roche).
(§2) Notch fusion alleles provide a target for therapeutic intervention. The three characterized Notch fusions represent two functional classes. The first class, exemplified by the HCC2218 and HCC1599 fusions, produces a protein similar to that produced by the ADAM17/TACE catalyzed S2 cleavage, which occurs during ligand activation of the Notch pathway. The second class, exemplified by the HCC1187 fusion, produces a protein similar to the NICD produced after cleavage at S3 by γ-secretase. The first class requires cleavage at S3 site by γ-secretase to release NICD, and thus would be expected to be sensitive to γ-secretase inhibitors (GSIs). The second class would be unaffected by GSIs, as the fusion generates an ORF similar to NICD. To test this, stable Notch reporter cell lines were established from each of the three Notch fusion positive carcinoma lines by infection with a lentivirus carrying the Notch responsive promoter driving firefly luciferase. Each of the three cell lines was treated with the γ-secretase inhibitor DAPT 31, and luciferase activity was measured in cell lysates 24 hours later. […] A panel of six breast cell lines were treated with DAPT at 0, 0.3, 1, and 3 μM, and cell proliferation was measured using a WST-1 assay over a six day time course.
In general terms: Formazan colour is commonly taken as a measure of viable cells.

For the next data set, the system named is HCC1599 cells. Nature of the data set: WST-1 cell proliferation assay with DAPT. It is filed as cell-based, human. To be noted: DAPT 0.3, 1, and 3 μM, six day time course. The method, then:
as §1, §2

For a further data set, the system named is HCC2218 cells. Nature of the data set: WST-1 cell proliferation assay with DAPT. It is filed as cell-based, human. As to conditions: DAPT 0.3, 1, and 3 μM, six day time course. The method, then:
as §1, §2

A further data set has as its system HCC1187 cells. The data set is described as follows: WST-1 cell proliferation assay with DAPT. It is filed as cell-based, human. To be noted: DAPT 0.3, 1, and 3 μM, six day time course. As for the experimental part:
as §1, §2

Data set [3] deals with γ-secretase-cleaved NOTCH1 (NICD). The data set is described as follows: Western blot of NICD levels after DAPT treatment. It is filed as cell-based, human. As for the experimental part:
For MAST2 fusion protein detection, cell pellets were sonicated in NP40 lysis buffer (50 mM Tris-HCl, 1% NP40, pH 7.4, Sigma), complete protease inhibitor mixture (Roche) and phosphatase inhibitor (EMD bioscience) Immunoblot analysis for MAST2 was carried out using MAST2 antibody from Novus Biologicals. Human β-actin antibody (Sigma) was used as a loading control. For NOTCH1 protein detection, cells were lysed in RIPA buffer containing protease inhibitor cocktail (Pierce). Proteins were separated by SDS-PAGE, transferred to nitrocellulose membranes and probed with antibodies recognizing total NOTCH1 (Cell Signaling), γ-secretase-cleaved NOTCH1 (NICD, Cell Signaling), or beta-actin (Santa Cruz). The signal was detected by chemiluminescence using Immun-Star Western C reagents (Bio-Rad).
Notch fusion alleles provide a target for therapeutic intervention. The three characterized Notch fusions represent two functional classes. […] Each of the three cell lines was treated with the γ-secretase inhibitor DAPT 31, and luciferase activity was measured in cell lysates 24 hours later. […] A panel of six breast cell lines were treated with DAPT at 0, 0.3, 1, and 3 μM, and cell proliferation was measured using a WST-1 assay over a six day time course.
For orientation: A western blot detects proteins with antibodies after separation by electrophoresis.

Description for HCC1599 xenograft: Four week-old female SCID C.B17 mice were procured from a breeding colony at University of Michigan. […] Mice were anesthetized using a cocktail of xylazine (80 mg/kg IP) and ketamine (10 mg/kg IP) for chemical restraint. MAST2 shRNA or scrambled shRNA knockdown MDA-MB-468 breast cancer cells (4 million) or NOTCH1 fusion allele positive HCC1599 breast cancer cell line (5 million) were resuspended in 100 ul of 1×PBA with 20% Matrigel (BD Biosciences) and implanted into right and left abdominal-inguinal mammary fat. Ten mice were included in each group. Two weeks after tumor implantation, HCC1599 xenograted mice were treated with γ-secretase inhibitor (DAPT) dissolved in 5% ethanol in corn oil (IP). Mice in control group also received 5% ethanol in corn oil as vehicle control. Tumor growth was recorded weekly by using digital calipers and tumor volumes were calculated using the formula (R/6) (L×W2), where L=length of tumor and W=width.
This was tested further by establishing a xenograft tumor model of HCC1599 in immunodeficient mice.

Take `C[C@H](NC(=O)Cc1cc(F)cc(F)c1)C(=O)N[C@H](C(=O)OC(C)(C)C)c1ccccc1` [DAPT, N—[N-(3,5-difluorophenacetyl)-L-alanyl]-S-phenylglycine t-butyl ester]: the “Notch target gene expression” value in data set [1] is on record as “repressed”. The “Notch reporter activity (luciferase)” value with Notch signaling pathway (HCC1187 stable Notch reporter line) is given as “only slightly diminished”; with Notch signaling pathway (HCC1599 stable Notch reporter line), “dramatic reduction”; in the data set on Notch signaling pathway (HCC2218 stable Notch reporter line), “dramatic reduction”. Moreover, the cell proliferation entry was “no reduction in proliferation” in data set [2], “dramatic reduction in proliferation” in the data set with HCC1599 cells, “significant reduction in proliferation” in the data set with HCC2218 cells and “no reduction in proliferation” in the data set with HCC1187 cells. Also, the “NICD levels (Western blot)” value in data set [3] (HCC1599 cells after DAPT treatment) is on record as “nearly complete elimination”; in data set [3] (HCC2218 cells after DAPT treatment), “dramatically reduced”. Moreover, the tumor volume result with HCC1599 xenograft (HCC1599 xenograft in immunodeficient mice, DAPT IP, versus untreated controls) is “significantly reduced”. Further, the overall body weight result with HCC1599 xenograft (mouse, in vivo) is given as “No effect”.
